Experimental data as given in PubChem BioAssay AID1259333 (Broad Institute, 2017).
Active and inactive are the calls of the source. The rule behind the calls is not given here; tested in parental BL2 cells.

Test: loss of cell viability by ATP content – CellTiter-Glo, cytotoxicity control, dose response (AID 1259333);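 note: 0% = vehicle neutral controls and -100% = reference inhibitor positive controls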
Details: cytotoxicity, CellTiter-Glo ATP luminescence; at 3.5 µM (top of the series)
With `COc1cccc(S(=O)(=O)N(C)C[C@H]2OCc3ccccc3-c3c(n(C)c4ccccc34)C(=O)N([C@@H](C)CO)C[C@H]2C)c1` the activity change, negative = cytotoxicity was 15.7% (inactive). For `C[C@@H]1CCCCO[C@@H](CN(C)CC2CCCCC2)[C@@H](C)CN([C@@H](C)CO)C(=O)c2cc(NC(=O)Nc3ccc(C(F)(F)F)cc3)ccc2O1`, the activity change, negative = cytotoxicity was 15% (inactive). For `CC(C)(C)c1cc(/C=C(\C#N)C(N)=S)cc(C(C)(C)C)c1O`, the activity change, negative = cytotoxicity was 26.8% (inactive). In the case of `O=C1C=CC(=O)c2c(O)c(N3CCN(CCOCCO)CC3)c(Br)c(O)c21`, the activity change, negative = cytotoxicity is reported as 104% (inactive). In the case of `O=C(Nc1ccc(C(F)(F)F)cc1)Nc1ccc2c(c1)[C@H]1C[C@@H](CC(=O)N3CCc4ccccc4C3)O[C@@H](CO)[C@H]1O2`, the activity change, negative = cytotoxicity is reported as 30.5% (inactive).

Same assay, conditions: cytotoxicity, CellTiter-Glo ATP luminescence; at 10 µM (top of the series)
In the case of `Fc1ccccc1/C=C1\CCCC2=C1Nc1nnnn1C2c1ccccc1F` (stereo not drawn), the activity change, negative = cytotoxicity is reported as 12.3% (inactive). With `C[C@H](CO)N1C[C@H](C)[C@@H](CN(C)Cc2ccc(Cl)c(Cl)c2)OCCCC[C@H](C)Oc2ccc(NS(=O)(=O)c3cccs3)cc2C1=O` the activity change, negative = cytotoxicity was 9.11% (inactive). For `COC1=CC(=O)c2c(ccc3ncnc(N)c23)C1=O`, the activity change, negative = cytotoxicity was 44.6% (inactive). With `N#CC(C#N)=NNc1cccc(Cl)c1` the activity change, negative = cytotoxicity was 69.4% (inactive). With `COc1cccc(S(=O)(=O)N(C)C[C@H]2OCc3ccccc3-c3c(n(C)c4ccccc34)C(=O)N([C@@H](C)CO)C[C@@H]2C)c1` the activity change, negative = cytotoxicity was 28.3% (inactive). With `CCc1cnc(N2[C@H](C#N)[C@H](c3ccc(C#CCC4CCCC4)cc3)[C@@H]2CO)s1` the activity change, negative = cytotoxicity was 56.6% (inactive). For `CC12CC[C@H]3[C@@H](CCC4(O)C[C@H](O)CCC34/C=N/NC(=O)Cc3ccccc3)C1(O)CCC2C1=CC(=O)OC1` (stereo partly drawn), the activity change, negative = cytotoxicity was 25% (inactive). In the case of `COC(=O)c1ccc2c(=O)[nH]c(COC(=O)c3c(-c4ccccc4)noc3C)nc2c1`, the activity change, negative = cytotoxicity is reported as 11% (inactive). With `NC(c1ccccc1)c1csc(NC(=O)Nc2cccc(C(F)(F)F)c2)n1` (stereo not drawn) the activity change, negative = cytotoxicity was -26.9% (inactive). For `N#C[C@@H]1[C@@H](c2ccccc2)[C@H](CO)N1C(=O)CN1CCOCC1`, the activity change, negative = cytotoxicity was 77.6% (inactive). With `CC(=O)O[C@@H]1C[C@@]2(C)[C@H](c3ccoc3)C[C@H]3O[C@]32[C@]2(C)C(=O)C(=O)C3C(C)(C)C(=O)C=C[C@]3(C)C12` (stereo partly drawn) the activity change, negative = cytotoxicity was 188% (inactive). With `c1cncc(C2=NCCC2)c1` the activity change, negative = cytotoxicity was 36.6% (inactive). With `COc1cc2c(cc1OC)C(=O)C(Br)CC2` (stereo not drawn) the activity change, negative = cytotoxicity was 112% (inactive). With `C[C@H](CO)N1C[C@H](C)[C@H](CN(C)Cc2ccc(Oc3ccccc3)cc2)OCc2ccccc2-c2ccccc2C1=O` the activity change, negative = cytotoxicity was 15.4% (inactive). In the case of `C[C@H]1CN([C@@H](C)CO)C(=O)Cc2cc(NS(=O)(=O)c3cccs3)ccc2O[C@@H]1CN(C)Cc1ccc(Cl)c(Cl)c1`, the activity change, negative = cytotoxicity is reported as 29.8% (inactive). With `COc1ccc(S(=O)(=O)Nc2ccc3c(c2)C(=O)N([C@H](C)CO)C[C@@H](C)[C@@H](CN(C)Cc2ccc(C(F)(F)F)cc2)OCCCC[C@@H](C)O3)cc1` the activity change, negative = cytotoxicity was 4.86% (inactive). In the case of `COc1ccccc1NC(c1cccnc1)c1ccc2cccnc2c1O` (stereo not drawn), the activity change, negative = cytotoxicity is reported as 123% (inactive). In the case of `O=C(c1nnsc1S(=O)(=O)c1ccc(Cl)cc1)N1CCOCC1`, the activity change, negative = cytotoxicity is reported as 40.8% (inactive). In the case of `C[C@H]1CCCC(=O)CCC/C=C/c2cc(O)cc(O)c2C(=O)O1`, the activity change, negative = cytotoxicity is reported as 29.3% (inactive). With `CC[C@H]1CN2CCc3cc(OC)c(OC)cc3C2C[C@@H]1CC1NCCc2cc(OC)c(OC)cc21` (stereo partly drawn) the activity change, negative = cytotoxicity was -31.6% (inactive). In the case of `C[C@@H]1CN([C@@H](C)CO)C(=O)c2ccccc2-c2ccccc2CO[C@@H]1CN(C)C(=O)c1cc(Cl)cc(Cl)c1`, the activity change, negative = cytotoxicity is reported as 38.8% (inactive). In the case of `CC(OC(=O)c1cc(Br)ccc1O)C(=O)Nc1ccc(S(=O)(=O)N2CCCC2)cc1` (stereo not drawn), the activity change, negative = cytotoxicity is reported as 47% (inactive). For `Cc1nc(C)c(C(=O)Nc2ncc([N+](=O)[O-])s2)o1`, the activity change, negative = cytotoxicity was 29.6% (inactive). For `O=C1CCCCC1Sc1nnc(-c2ccc3c(c2)OCO3)o1` (stereo not drawn), the activity change, negative = cytotoxicity was 25.1% (inactive). With `NS(=O)(=O)c1nn2cc(-c3ccccc3)nc2s1` the activity change, negative = cytotoxicity was 65.7% (inactive). In the case of `CCc1csc(N2[C@H](C#N)[C@H](c3ccc(C#Cc4ccc(F)cc4)cc3)[C@H]2CO)n1`, the activity change, negative = cytotoxicity is reported as 30% (inactive). With `CCOc1ncccc1C(=O)OC(C)C(=O)Nc1ccc(Cl)cn1` (stereo not drawn) the activity change, negative = cytotoxicity was 24.8% (inactive). In the case of `CCCNC(=O)c1cc2c(c(-c3cccc(-c4cc5ccccc5o4)c3)n1)[C@H](CCO)N(C(=O)NC(C)C)C2`, the activity change, negative = cytotoxicity is reported as 109% (inactive). With `O=S(=O)(CCSc1ccccn1)c1nc2ccccc2s1` the activity change, negative = cytotoxicity was 55.1% (inactive). For `O=C1C[C@H](c2ccccc2)C(=O)N[C@@H](c2ccccc2)C/C=C\C[C@@H](c2ccccc2)N1`, the activity change, negative = cytotoxicity was 72.2% (inactive). In the case of `c1ccc(-c2nnc(-c3ccccn3)nn2)nc1`, the activity change, negative = cytotoxicity is reported as 22.8% (inactive). With `COc1ccc(S(=O)(=O)N(C)C[C@H]2Oc3ccc(NC(=O)Nc4ccc(C(F)(F)F)cc4)cc3C(=O)N([C@@H](C)CO)C[C@H]2C)cc1` the activity change, negative = cytotoxicity was 24.4% (inactive). For `COc1ccc(Cl)cc1NC(=O)Nc1cc(C)nc2ccccc12`, the activity change, negative = cytotoxicity was 60.2% (inactive). In the case of `CCCCc1nc2ccccc2[nH]1`, the activity change, negative = cytotoxicity is reported as 13.9% (inactive). For `CC(C)C1CC(N(C)C)=CC(=S)N1` (stereo not drawn), the activity change, negative = cytotoxicity was 24.5% (inactive). In the case of `Cc1cc(C)c2c(c1)SC1=NC(c3ccccc3)(C(F)(F)F)NC(=O)N12` (stereo not drawn), the activity change, negative = cytotoxicity is reported as 30.7% (inactive). With `Cc1noc(C)c1S(=O)(=O)Nc1ccc2c(c1)C(=O)N([C@@H](C)CO)C[C@@H](C)[C@@H](CN(C)C(=O)Nc1cccc3ccccc13)OCCCC[C@H](C)O2` the activity change, negative = cytotoxicity was 25.9% (inactive). For `COc1ccc(S(=O)(=O)N(C)C[C@H]2Oc3ccc(NC(=O)Nc4ccc(C(F)(F)F)cc4)cc3C(=O)N([C@@H](C)CO)C[C@@H]2C)cc1`, the activity change, negative = cytotoxicity was 33.2% (inactive). With `C=C1C(=O)OC2C=C(CO)CCC=C(CO)CC(OC(=O)C(C)C)C12` (stereo not drawn) the activity change, negative = cytotoxicity was 38.2% (inactive). With `CCCCn1c(NC(=O)c2ccc(Br)o2)c(S(=O)(=O)c2ccccc2)c2nc3ccccc3nc21` the activity change, negative = cytotoxicity was 62.4% (inactive). With `COc1ccc(C#Cc2ccc([C@@H]3[C@H](CO)N4CCCCN(C(=O)Nc5cccc(F)c5)C[C@@H]34)cc2)cc1` the activity change, negative = cytotoxicity was 50.4% (inactive). In the case of `Cc1ccc(-c2ccccc2[C@H]2[C@@H](C#N)N(c3ncc(-c4ccccc4)s3)[C@@H]2CO)cc1`, the activity change, negative = cytotoxicity is reported as 47.4% (inactive). With `O=C(C[C@H]1CC[C@@H]2[C@H](COC[C@H](O)CN2Cc2cc(F)ccc2F)O1)NCc1ccc(Oc2ccccc2)cc1` the activity change, negative = cytotoxicity was 17% (inactive). In the case of `Cc1ccc(C(CC(=O)NCc2ccco2)c2ccc(OC(C)C)cc2)cc1` (stereo not drawn), the activity change, negative = cytotoxicity is reported as -3.48% (inactive). For `CC(=O)[C@]1(O)Cc2c(O)c3c(c(O)c2[C@@H](O[C@H]2C[C@H](N)[C@H](O)[C@H](C)O2)C1)C(=O)c1ccccc1C3=O`, the activity change, negative = cytotoxicity was -5.56% (inactive). With `CC(=NNC(=S)N1CC2CCC(CC2)C1)c1nccs1` the activity change, negative = cytotoxicity was 126% (inactive). In the case of `CC(C)OC(=O)CC1C(=O)NCCN1C(=S)NC(=O)c1cccs1` (stereo not drawn), the activity change, negative = cytotoxicity is reported as 19.9% (inactive). With `CCCn1c(NC(=O)c2cccc(S(=O)(=O)N3CCCC3)c2)nc2ccccc21` the activity change, negative = cytotoxicity was 12.5% (inactive). With `Cc1ccccc1C(=O)N1CCC(C(=O)Nc2nc3ccc(F)cc3s2)CC1` the activity change, negative = cytotoxicity was 18.4% (inactive). With `CCOC(=O)c1c(SCCN2CCCC2)n(-c2ccccc2)c(=S)n(-c2ccccc2)c1=O` the activity change, negative = cytotoxicity was 63.8% (inactive). With `Cc1ccccc1S(=O)(=O)N1C[C@@H]2N[C@H](C1)C2c1ccc(-c2cccc(C#N)c2)cc1` (stereo partly drawn) the activity change, negative = cytotoxicity was 54.5% (inactive). In the case of `c1ccc2c(c1)OCC(C1=NCCN1)O2` (stereo not drawn), the activity change, negative = cytotoxicity is reported as 56.8% (inactive). With `COc1cccc(/C=N/Nc2ccc(C(=O)O)cc2)c1O` the activity change, negative = cytotoxicity was 5.24% (inactive). For `CCc1cnc(N2[C@H](C#N)[C@@H](c3ccc(C#CC(C)C)cc3)[C@H]2CO)s1`, the activity change, negative = cytotoxicity was 10.7% (inactive). In the case of `O=c1cc(-c2ccc(O)cc2)oc2ccc3ccccc3c12`, the activity change, negative = cytotoxicity is reported as 20.1% (inactive). With `C[C@H](CO)N1C[C@H](C)[C@H](CN(C)C(=O)C2CCOCC2)Oc2ncc(C#CCc3ccccc3)cc2C1=O` the activity change, negative = cytotoxicity was 0.181% (inactive). With `C=C1C(=O)OC2C=C(CO)C3OC3C3OC3(C)CC(OC(=O)/C(=C/C)COC(C)=O)C12` (stereo not drawn) the activity change, negative = cytotoxicity was 17.5% (inactive). With `Cc1ccc(P(=O)(CSC(=N)N)c2ccc(C)cc2)cc1` the activity change, negative = cytotoxicity was -36.8% (inactive). In the case of `CC(=NNc1ccc2ccccc2n1)c1ccccc1O`, the activity change, negative = cytotoxicity is reported as -29.4% (inactive). In the case of `Cc1ccc(N2CC(C(=O)Nc3nccs3)CC2=O)cc1Cl` (stereo not drawn), the activity change, negative = cytotoxicity is reported as 22.3% (inactive). For `CC(C)CC#Cc1ccc([C@@H]2[C@H]3CN(C(=O)Nc4ccccc4)CCCCN3[C@H]2CO)cc1`, the activity change, negative = cytotoxicity was 40.2% (inactive). For `CSC1SCC2C(=O)N(C)C(C(C)C)C(=O)OCC(NC(=O)c3cnc4ccccc4n3)C(=O)NC(C)C(=O)N(C)C1C(=O)N(C)C(C(C)C)C(=O)OCC(NC(=O)c1cnc3ccccc3n1)C(=O)NC(C)C(=O)N2C` (stereo not drawn), the activity change, negative = cytotoxicity was 62.7% (inactive). With `CC(=O)Nc1ccc(S(=O)(=O)c2ccc(N)cc2)cc1` the activity change, negative = cytotoxicity was 13.9% (inactive). With `CCCNC(=O)N1[C@H](CO)[C@H](c2ccc(-c3cccc(OC)c3)cc2)[C@@H]1C#N` the activity change, negative = cytotoxicity was 27% (inactive). In the case of `O=c1cc(-c2ccccc2)oc2cc(O)cc(O)c12`, the activity change, negative = cytotoxicity is reported as 52.1% (inactive). In the case of `O=C(C[C@@H]1C[C@H]2c3cc(NC(=O)Nc4ccc(C(F)(F)F)cc4)ccc3O[C@H]2[C@H](CO)O1)NCc1cc(F)ccc1F`, the activity change, negative = cytotoxicity is reported as 31.2% (inactive). For `O=C(COc1cccnc1[N+](=O)[O-])c1ccc(Cl)s1`, the activity change, negative = cytotoxicity was 33.6% (inactive).

Same assay, conditions: cytotoxicity, CellTiter-Glo ATP luminescence; at 11 µM (top of the series)
With `COc1ccc(-c2ccc([C@H]3[C@@H](C#N)N(C(=O)c4cccc(F)c4)[C@H]3CO)cc2)cc1` the activity change, negative = cytotoxicity was 24% (inactive).
